# Measurements from ChEMBL document CHEMBL5291721, “A preclinical secondary pharmacology resource illuminates target-adverse drug reaction associations of marketed drugs” (Nat Commun, 2023).
# Assays:
# Glucocorticoid receptor = target: T1, Glucocorticoid receptor (Homo sapiens, UniProt P04150)
# T1 sequence (P04150 whole entry): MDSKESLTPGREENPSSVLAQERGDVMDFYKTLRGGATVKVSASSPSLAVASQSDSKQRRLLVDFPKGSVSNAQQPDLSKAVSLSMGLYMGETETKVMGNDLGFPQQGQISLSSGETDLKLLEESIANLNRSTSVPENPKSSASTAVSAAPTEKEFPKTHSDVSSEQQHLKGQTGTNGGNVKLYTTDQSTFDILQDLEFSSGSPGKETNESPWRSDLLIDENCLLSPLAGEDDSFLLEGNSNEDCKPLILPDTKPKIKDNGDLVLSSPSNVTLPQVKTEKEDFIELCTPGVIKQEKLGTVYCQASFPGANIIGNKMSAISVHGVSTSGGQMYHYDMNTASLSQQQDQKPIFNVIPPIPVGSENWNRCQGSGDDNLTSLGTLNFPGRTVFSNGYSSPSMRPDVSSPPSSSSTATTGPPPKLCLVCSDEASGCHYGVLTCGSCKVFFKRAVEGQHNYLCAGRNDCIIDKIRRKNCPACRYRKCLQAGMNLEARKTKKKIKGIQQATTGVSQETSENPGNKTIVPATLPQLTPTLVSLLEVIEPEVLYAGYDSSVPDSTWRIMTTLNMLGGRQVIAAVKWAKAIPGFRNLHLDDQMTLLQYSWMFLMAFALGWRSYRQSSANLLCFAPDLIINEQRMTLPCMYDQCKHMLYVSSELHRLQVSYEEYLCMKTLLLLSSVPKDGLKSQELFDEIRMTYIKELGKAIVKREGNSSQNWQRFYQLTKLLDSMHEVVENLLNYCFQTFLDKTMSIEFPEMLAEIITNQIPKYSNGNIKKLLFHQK
# [1] = target: Sodium-dependent serotonin transporter (Homo sapiens, UniProt P31645)
# Mu-type opioid receptor = Mu-type opioid receptor (Homo sapiens, UniProt P35372)
# [2] = target: Vascular endothelial growth factor receptor 2 (Homo sapiens, UniProt P35968); assay type: functional
# [3] = target: T2, Alpha-1A adrenergic receptor (Homo sapiens, UniProt P35348); assay type: functional, cell-based
# T2 sequence (P35348 whole entry): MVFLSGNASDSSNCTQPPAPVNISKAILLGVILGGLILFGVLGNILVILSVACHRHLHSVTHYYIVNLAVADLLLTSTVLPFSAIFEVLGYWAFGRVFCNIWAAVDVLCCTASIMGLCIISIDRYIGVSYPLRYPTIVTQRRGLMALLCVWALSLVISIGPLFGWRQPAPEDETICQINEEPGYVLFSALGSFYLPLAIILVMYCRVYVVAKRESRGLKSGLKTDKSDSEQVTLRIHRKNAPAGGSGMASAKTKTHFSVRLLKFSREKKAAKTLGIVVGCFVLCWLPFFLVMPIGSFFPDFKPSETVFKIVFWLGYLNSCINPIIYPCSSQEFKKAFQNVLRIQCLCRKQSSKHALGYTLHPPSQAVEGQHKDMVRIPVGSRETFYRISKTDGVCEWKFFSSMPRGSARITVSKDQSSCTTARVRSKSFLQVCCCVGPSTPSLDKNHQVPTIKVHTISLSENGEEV
# [4] = target: 5-hydroxytryptamine receptor 2B (Homo sapiens, UniProt P41595); assay type: functional, cell-based
# [5] = target: T2, Alpha-1A adrenergic receptor; assay type: functional, cell-based; remark: listed apart in the source
# [6] = target: T3, Muscarinic acetylcholine receptor M2 (Homo sapiens, UniProt P08172)
# T3 sequence (P08172 whole entry): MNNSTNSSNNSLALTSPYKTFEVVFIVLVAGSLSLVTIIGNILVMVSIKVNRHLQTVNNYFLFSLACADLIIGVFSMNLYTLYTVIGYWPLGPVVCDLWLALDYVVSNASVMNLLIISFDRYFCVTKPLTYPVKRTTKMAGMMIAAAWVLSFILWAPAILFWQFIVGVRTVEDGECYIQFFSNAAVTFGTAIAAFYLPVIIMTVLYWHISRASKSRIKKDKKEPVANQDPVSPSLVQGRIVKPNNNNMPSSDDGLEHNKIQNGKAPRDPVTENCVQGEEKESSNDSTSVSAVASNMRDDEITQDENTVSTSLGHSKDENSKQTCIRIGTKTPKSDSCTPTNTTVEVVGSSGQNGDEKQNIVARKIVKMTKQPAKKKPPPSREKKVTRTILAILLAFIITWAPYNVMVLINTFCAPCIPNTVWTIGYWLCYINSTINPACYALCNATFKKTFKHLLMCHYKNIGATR
# Thromboxane A2 receptor = target: T4, Thromboxane A2 receptor (Homo sapiens, UniProt P21731); assay type: functional, cell-based
# T4 sequence (P21731 whole entry): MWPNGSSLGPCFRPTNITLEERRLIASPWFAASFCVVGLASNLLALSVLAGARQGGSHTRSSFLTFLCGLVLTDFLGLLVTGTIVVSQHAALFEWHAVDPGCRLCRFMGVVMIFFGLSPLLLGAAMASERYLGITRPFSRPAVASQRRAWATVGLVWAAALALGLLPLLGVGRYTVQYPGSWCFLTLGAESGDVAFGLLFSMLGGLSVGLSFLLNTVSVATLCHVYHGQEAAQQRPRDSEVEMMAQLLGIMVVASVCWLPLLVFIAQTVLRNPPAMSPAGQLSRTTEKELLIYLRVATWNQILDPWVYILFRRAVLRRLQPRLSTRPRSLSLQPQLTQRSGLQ
# Also: assay procedure not described here.
# Sodium-dependent serotonin transporter, sequence (P31645 whole entry): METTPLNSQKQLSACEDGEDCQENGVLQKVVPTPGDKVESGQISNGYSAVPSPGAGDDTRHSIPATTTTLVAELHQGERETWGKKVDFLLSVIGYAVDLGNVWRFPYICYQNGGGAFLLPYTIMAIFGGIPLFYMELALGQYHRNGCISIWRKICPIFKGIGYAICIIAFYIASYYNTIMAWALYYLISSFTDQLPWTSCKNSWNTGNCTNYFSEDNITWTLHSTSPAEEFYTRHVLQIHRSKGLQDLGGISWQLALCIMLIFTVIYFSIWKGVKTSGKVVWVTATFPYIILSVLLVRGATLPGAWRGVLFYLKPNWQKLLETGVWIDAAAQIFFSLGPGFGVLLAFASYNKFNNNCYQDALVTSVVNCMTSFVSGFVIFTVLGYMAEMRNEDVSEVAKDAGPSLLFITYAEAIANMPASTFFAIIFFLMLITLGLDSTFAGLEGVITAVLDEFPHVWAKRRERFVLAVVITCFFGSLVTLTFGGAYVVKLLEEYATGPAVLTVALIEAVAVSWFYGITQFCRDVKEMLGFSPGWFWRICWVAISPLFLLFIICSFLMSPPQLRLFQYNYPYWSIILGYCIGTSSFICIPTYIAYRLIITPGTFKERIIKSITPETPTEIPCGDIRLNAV
# Mu-type opioid receptor, sequence (P35372 whole entry): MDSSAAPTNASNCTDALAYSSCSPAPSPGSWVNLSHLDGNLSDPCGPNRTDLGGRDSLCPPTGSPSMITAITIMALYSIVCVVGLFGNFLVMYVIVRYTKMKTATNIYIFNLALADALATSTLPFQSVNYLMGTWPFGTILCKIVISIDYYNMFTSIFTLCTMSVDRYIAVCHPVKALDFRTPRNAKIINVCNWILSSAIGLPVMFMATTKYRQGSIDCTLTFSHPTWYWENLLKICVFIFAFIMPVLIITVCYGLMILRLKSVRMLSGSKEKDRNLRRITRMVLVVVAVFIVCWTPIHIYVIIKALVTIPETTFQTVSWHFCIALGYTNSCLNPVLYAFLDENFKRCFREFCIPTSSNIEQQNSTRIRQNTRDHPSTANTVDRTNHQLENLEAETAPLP
# Vascular endothelial growth factor receptor 2, sequence (P35968 whole entry): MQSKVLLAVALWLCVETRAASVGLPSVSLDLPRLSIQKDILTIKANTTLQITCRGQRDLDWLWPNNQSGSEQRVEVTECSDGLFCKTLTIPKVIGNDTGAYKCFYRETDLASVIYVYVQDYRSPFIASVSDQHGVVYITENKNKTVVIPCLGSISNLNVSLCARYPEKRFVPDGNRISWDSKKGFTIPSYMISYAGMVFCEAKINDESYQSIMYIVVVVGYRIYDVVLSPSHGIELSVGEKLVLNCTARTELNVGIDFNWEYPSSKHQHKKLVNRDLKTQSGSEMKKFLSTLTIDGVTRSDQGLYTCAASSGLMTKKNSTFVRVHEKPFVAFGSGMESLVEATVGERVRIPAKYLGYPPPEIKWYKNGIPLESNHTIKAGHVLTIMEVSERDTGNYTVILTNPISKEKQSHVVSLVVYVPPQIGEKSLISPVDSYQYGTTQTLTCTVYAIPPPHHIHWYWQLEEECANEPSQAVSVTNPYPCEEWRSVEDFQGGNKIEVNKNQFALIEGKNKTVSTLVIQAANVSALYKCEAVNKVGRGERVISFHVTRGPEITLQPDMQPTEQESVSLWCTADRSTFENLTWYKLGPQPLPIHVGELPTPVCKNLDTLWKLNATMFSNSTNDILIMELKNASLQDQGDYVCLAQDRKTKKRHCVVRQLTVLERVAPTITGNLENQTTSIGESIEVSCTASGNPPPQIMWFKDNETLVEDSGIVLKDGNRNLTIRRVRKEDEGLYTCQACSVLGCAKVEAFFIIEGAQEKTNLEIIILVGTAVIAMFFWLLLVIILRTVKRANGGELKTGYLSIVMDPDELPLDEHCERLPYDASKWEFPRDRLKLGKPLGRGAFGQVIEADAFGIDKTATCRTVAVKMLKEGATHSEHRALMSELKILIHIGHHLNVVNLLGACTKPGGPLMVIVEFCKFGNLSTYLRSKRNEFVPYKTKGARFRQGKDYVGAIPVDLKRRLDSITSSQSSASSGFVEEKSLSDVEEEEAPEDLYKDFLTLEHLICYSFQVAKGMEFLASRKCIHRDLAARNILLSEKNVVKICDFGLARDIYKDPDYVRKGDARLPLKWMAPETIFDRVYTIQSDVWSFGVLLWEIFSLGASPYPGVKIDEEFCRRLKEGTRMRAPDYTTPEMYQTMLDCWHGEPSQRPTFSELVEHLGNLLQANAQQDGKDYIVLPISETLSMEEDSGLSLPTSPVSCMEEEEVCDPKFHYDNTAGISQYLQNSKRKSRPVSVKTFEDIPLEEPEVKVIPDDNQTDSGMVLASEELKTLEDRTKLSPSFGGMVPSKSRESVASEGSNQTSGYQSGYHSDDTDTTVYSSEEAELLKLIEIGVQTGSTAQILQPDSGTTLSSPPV
# 5-hydroxytryptamine receptor 2B, sequence (P41595 whole entry): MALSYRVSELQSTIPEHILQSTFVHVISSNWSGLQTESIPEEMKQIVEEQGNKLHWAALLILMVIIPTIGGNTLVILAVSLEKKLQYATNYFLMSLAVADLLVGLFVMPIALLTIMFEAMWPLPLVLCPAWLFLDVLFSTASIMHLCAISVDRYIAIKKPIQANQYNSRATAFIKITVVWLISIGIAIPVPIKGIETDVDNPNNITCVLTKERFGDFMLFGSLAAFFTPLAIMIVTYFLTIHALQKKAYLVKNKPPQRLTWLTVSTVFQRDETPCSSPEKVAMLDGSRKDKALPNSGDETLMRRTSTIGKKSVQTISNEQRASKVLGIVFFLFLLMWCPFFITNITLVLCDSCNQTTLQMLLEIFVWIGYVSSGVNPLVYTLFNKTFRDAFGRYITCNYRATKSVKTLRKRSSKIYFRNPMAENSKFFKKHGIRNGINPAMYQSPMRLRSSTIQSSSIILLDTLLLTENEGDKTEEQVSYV
SMILES,AC50 (Glucocorticoid receptor),AC50 [1],AC50 (Mu-type opioid receptor),other results
CCCCN1C[C@H](O)[C@@H](O)[C@H](O)[C@H]1CO,> 30 µM,> 30 µM,–,–
CN(C)CCC=C1c2ccccc2C(C)(C)c2ccccc21,–,0.24 µM,24 µM,–
CCOC(=O)[C@H](CCc1ccccc1)N[C@@H](C)C(=O)N1[C@H](C(=O)O)C[C@@H]2CCC[C@@H]21,> 30 µM,–,> 30 µM,–
Nc1nc(NC2CC2)c2ncn([C@H]3C=C[C@@H](CO)C3)c2n1 [ABACAVIR],> 30 µM,> 30 µM,–,–
CC(=O)NCCCS(=O)(=O)O [ACAMPROSATE],> 30 µM,> 30 µM,–,–
CCCSc1ccc2nc(NC(=O)OC)[nH]c2c1 [ALBENDAZOLE],> 10 µM,–,> 30 µM,–
COc1cc2nc(N(C)CCCNC(=O)C3CCCO3)nc(N)c2cc1OC (stereo not given) [ALFUZOSIN],> 30 µM,> 30 µM,–,–
C=CCc1ccccc1OCC(O)CNC(C)C (stereo not given) [ALPRENOLOL],–,11.5 µM,–,AC50 [2]: > 0.3 µM; AC50 [3]: > 0.3 µM; AC50 [4]: > 0.3 µM; AC50 [5]: > 0.3 µM; AC50 [6]: > 0.3 µM; AC50 (Thromboxane A2 receptor): > 0.3 µM
COC(c1ccccc1)(c1ccccc1)[C@H](Oc1nc(C)cc(C)n1)C(=O)O [AMBRISENTAN],–,–,–,AC50 [2]: > 30 µM; AC50 [3]: > 30 µM; AC50 [4]: > 30 µM; AC50 [5]: > 30 µM; AC50 [6]: > 30 µM; AC50 (Thromboxane A2 receptor): > 30 µM
CNC(=O)c1ccccc1Sc1ccc2c(/C=C/c3ccccn3)n[nH]c2c1 [AXITINIB],–,> 30 µM,> 30 µM,–
CN(C)CCn1nnnc1SCC1=C(C(=O)O)N2C(=O)[C@@H](NC(=O)Cc3csc(N)n3)[C@H]2SC1 [CEFOTIAM],–,–,–,AC50 [3]: > 30 µM; AC50 [4]: > 30 µM; AC50 [5]: > 30 µM; AC50 [6]: > 30 µM; AC50 (Thromboxane A2 receptor): > 30 µM
Cc1ccc(-c2cc(C(F)(F)F)nn2-c2ccc(S(N)(=O)=O)cc2)cc1 [CELECOXIB],> 30 µM,–,> 30 µM,–
CC1=C(C(=O)O)N2C(=O)[C@@H](NC(=O)[C@H](N)c3ccccc3)[C@H]2SC1 [CEPHALEXIN ANHYDROUS],> 30 µM,–,–,–
CN1C(=O)CCS(=O)(=O)C1c1ccc(Cl)cc1 (stereo not given) [CHLORMEZANONE],> 10 µM,> 10 µM,> 30 µM,–
CN(C)CCC(c1ccc(Cl)cc1)c1ccccn1 (stereo not given) [CHLORPHENIRAMINE],> 30 µM,–,> 10 µM,–
CN(C)/N=N/c1[nH]cnc1C(N)=O [DACARBAZINE],> 10 µM,–,> 30 µM,–
O=C1Nc2ccc(Cl)cc2[C@@](C#CC2CC2)(C(F)(F)F)O1 [EFAVIRENZ],2.71 µM,> 30 µM,> 30 µM,–
C[C@]12CC[C@@H]3c4ccc(O)cc4CC[C@H]3[C@@H]1C[C@@H](O)[C@@H]2O [ESTRIOL],–,–,–,AC50 [2]: > 30 µM; AC50 [3]: > 30 µM; AC50 [4]: > 30 µM; AC50 [5]: > 30 µM; AC50 [6]: > 30 µM; AC50 (Thromboxane A2 receptor): > 30 µM
C[C@]12CCC(=O)C=C1CC[C@@H]1[C@@H]2[C@@H](O)C[C@@]2(C)[C@H]1CC[C@]2(O)C(=O)CO [HYDROCORTISONE],–,–,> 30 µM,–
O=P1(NCCCl)OCCCN1CCCl (stereo not given) [IFOSFAMIDE],> 30 µM,–,–,–
CCC(C)n1ncn(-c2ccc(N3CCN(c4ccc(OCC5COC(Cn6cncn6)(c6ccc(Cl)cc6Cl)O5)cc4)CC3)cc2)c1=O (stereo not given) [ITRACONAZOLE],–,–,> 10 µM,–
c1ccc([C@H]2CN3CCSC3=N2)cc1 [LEVAMISOLE],–,–,> 30 µM,–

SMILES,AC50 (Glucocorticoid receptor),AC50 [1],AC50 (Mu-type opioid receptor),other results
C[C@H]1CNCCc2ccc(Cl)cc21 [LORCASERIN],–,–,> 30 µM,–
CN1C(C(=O)Nc2ccccn2)=C(O)c2sc(Cl)cc2S1(=O)=O [LORNOXICAM],–,> 30 µM,> 30 µM,–
C[C@@H](O)[C@H]1C(=O)N2C(C(=O)O)=C(S[C@@H]3CN[C@H](C(=O)N(C)C)C3)[C@H](C)[C@H]12 [MEROPENEM],> 10 µM,–,> 300 µM,–
CNC1Cc2ccccc2N(C)c2ccccc21 (stereo not given) [METAPRAMINE],–,14 µM,> 30 µM,–
Clc1ccc(C(c2ccccc2Cl)C(Cl)Cl)cc1 (stereo not given) [MITOTANE],1.4 µM,–,> 30 µM,–
CC1(C)NC(=O)N(c2ccc([N+](=O)[O-])c(C(F)(F)F)c2)C1=O [NILUTAMIDE],–,> 30 µM,–,AC50 [3]: > 3 µM; AC50 [4]: > 30 µM; AC50 [5]: > 30 µM; AC50 [6]: > 30 µM; AC50 (Thromboxane A2 receptor): > 30 µM
Cc1nc([N+](=O)[O-])cn1-c1ccc([N+](=O)[O-])cc1 [NITREFAZOLE],> 30 µM,> 30 µM,–,–
COc1ccc(CC(C)(C)NC[C@H](O)c2cc(O)cc3c2OCC(=O)N3)cc1 [OLODATEROL],–,0.0608 µM,> 30 µM,–
CC(C)(S)[C@@H](N)C(=O)O [PENICILLAMINE],–,–,–,AC50 [2]: > 30 µM; AC50 [3]: > 30 µM; AC50 [4]: > 30 µM; AC50 [5]: > 30 µM; AC50 [6]: > 30 µM; AC50 (Thromboxane A2 receptor): > 30 µM
CCCN1C[C@H](CSC)C[C@@H]2c3cccc4[nH]cc(c34)C[C@H]21 [PERGOLIDE],> 30 µM,–,> 30 µM,–
C1CCC(C(CC2CCCCN2)C2CCCCC2)CC1 (stereo not given) [PERHEXILINE],–,–,16 µM,–
c1cnc(N2CCN(Cc3ccc4c(c3)OCO4)CC2)nc1 [PIRIBEDIL],–,12 µM,> 30 µM,–
COCCCN1CCC(NC(=O)c2cc(Cl)c(N)c3c2OCC3)CC1 [PRUCALOPRIDE],–,> 30 µM,> 30 µM,AC50 [3]: > 30 µM; AC50 [4]: > 30 µM; AC50 [5]: > 30 µM; AC50 [6]: > 30 µM; AC50 (Thromboxane A2 receptor): > 30 µM
COc1ccccc1OCC(O)CN1CCN(CC(=O)Nc2c(C)cccc2C)CC1 (stereo not given) [RANOLAZINE],> 30 µM,> 30 µM,–,–
Cc1c(C(=O)NN2CCCCC2)nn(-c2ccc(Cl)cc2Cl)c1-c1ccc(Cl)cc1 [RIMONABANT],> 30 µM,> 30 µM,–,–
Cn1nnc2c(C(N)=O)ncn2c1=O [TEMOZOLOMIDE],–,> 30 µM,> 30 µM,–
Clc1ccc2nsnc2c1NC1=NCCN1 [TIZANIDINE],> 30 µM,–,> 30 µM,–
CCOC(=O)[C@H](CCc1ccccc1)N[C@@H](C)C(=O)N1[C@H](C(=O)O)C[C@H]2CCCC[C@@H]21 [TRANDOLAPRIL],–,–,–,AC50 [2]: > 30 µM; AC50 [3]: > 30 µM; AC50 [4]: > 30 µM; AC50 [5]: > 30 µM; AC50 [6]: > 30 µM; AC50 (Thromboxane A2 receptor): > 30 µM
O=C(O[C@H]1C[C@H]2CC[C@@H](C1)[N+]21CCCC1)C(O)(c1ccccc1)c1ccccc1 [TROSPIUM],–,> 30 µM,–,–
N[C@@H]1[C@H]2CN(c3nc4c(cc3F)c(=O)c(C(=O)O)cn4-c3ccc(F)cc3F)C[C@@H]12 [TROVAFLOXACIN],–,–,> 30 µM,–
Nc1ccn([C@H]2CC[C@@H](CO)O2)c(=O)n1 [ZALCITABINE],–,> 10 µM,> 30 µM,–
NS(=O)(=O)Cc1noc2ccccc12 [ZONISAMIDE],> 10 µM,> 10 µM,> 30 µM,–
